Here are results for 2 compounds from patent US7700792B2, “Highly active lysophosphatidic acid and method of screening therewith” (Ono Pharmaceutical Co., Ltd., priority 2003, dated 2010).

The test system of one assay is isolated urethra of rat. As to the kind of experiment: Contraction-measuring system using an isolated urethra of rat. Particulars: Magnus tube, urethra strips, control high concentration KCl. The protocol: After sacrificing female or male CD (SD) IGS rats (Charles River Japan Inc., 8-9 week-old in use) by blowing heads and exsanguinating from carotid artery and jugular vein, urethra under pubis was isolated carefully and soaked in Krebs-Henseleit solution (112 mM NaCl, 5.9 mM KCl, 2.0 mM CaCl2, 1.2 mM MgCl2, 1.2 mM NaH2PO4, 25.0 mM NaHCO3, 11.5 mM Glucose) immediately. Urethra part was cut from isolated sample, and was dissected flatly and subsequently was cut parallel to circular muscle. Thus, 2-3 strips of sample that are 3-4 mm long by 2-3 mm wide were made from one animal.
The made samples were suspended in the Magnus tube (volume: 10 mL) filled by Krebs-Henseleit solution (vented by 37±1° C., mixed gas [95% O2+5% CO2]). The samples were added about 0.5 g tension and stabilized for 60 min, and subsequently the contractile activity was recorded on recorder (lincarcoder WR3320: GRAPHTEC CORP.) via a pressure amplifier (AP-621G: Nihon Kohden Ltd) from Force displacement transducer (FD pick-up TB-611T; Nihon Kohden Ltd).
The contractile reaction of control was given by stimulation of high concentration KCl solution (solution replaced all NaCl with KCl).

The subject of the next assay is Male CD (SD) IGS rats. As to the kind of experiment: Increasing urethral pressure measuring system under anesthesia of rat with urethane. Type of assay: in vivo. The following applies: i.v., urethane-anesthetized rat. The source says:
Male CD (SD) IGS rats (Charles River Japan Inc., 8-9 week-old in use) were anesthetized by subcutaneous administration of urethane (1.2 g/kg). After incision of cervical median, jugular catheter for administration of drug and arterial catheter for measurement of blood pressure were inserted. After incising of hypogastrium median, urethra was tied off in the vicinity of pubic bone. Urethra catheter was inserted into urethra by incision of dome of urinary bladder and fixed by ligation at the bladder neck. Urethra catheter was connected to the pressure tranducer and urethral pressure was measured. Subsequently, urethral pressure was adjusted about 20 mmHg and left until stabilizing (for about 20 minutes).

`CCCCC[C@@H]1O[C@@H]1C[C@H]1O[C@H]1CCCCCCCC(=O)OC[C@H](O)COP(=O)(O)O` [Example 1-1]: the “contracting effect on the isolated urethra of rat” value in the assay on isolated urethra of rat was “contracting effect”. Besides, the “increase of urethral pressure” value in the assay with Male CD (SD) IGS rats (0.3 mg/kg) came out at 5.4 mmHg; with Male CD (SD) IGS rats (1.0 mg/kg) it was 8.5 mmHg.

Consider `CCCCC/C=C\C/C=C\CCCCCCCC(=O)OC[C@@H](O)COP(=O)([O-])[O-].[Na+].[Na+]` [1-linoleoyl(18:2)-LPA, D(+)-sn-1-o-linoleoyl-glyceryl-3-phosphate. sodium salt, reference compound], for which the entries for the “increase of urethral pressure” value with Male CD (SD) IGS rats (0.3 mg/kg) and in the assay with Male CD (SD) IGS rats (1.0 mg/kg) were 0.6 mmHg and 0.8 mmHg, respectively.
